Measurements from ChEMBL document CHEMBL2040769, “Lipase-catalyzed preparation of chromomycin A₃ analogues and biological evaluation for anticancer activity” (Bioorg Med Chem Lett, 2012).
pIC50: −log10 of the molar value.

Tests used:
A549 = experiment: Cytotoxicity against human A549 cells; assay type: functional, cell-based
COLO 205 [1] = experiment: Ratio of IC50 for chromomycin to compound for human COLO205 cells; assay type: functional
BXPC-3 = experiment: Cytotoxicity against human BxPC3 cells; assay type: functional, cell-based
COLO 205 [2] = experiment: Cytotoxicity against human COLO205 cells; assay type: functional, cell-based
A2780 [3] = experiment: Cytotoxicity against human A2780 cells; assay type: functional, cell-based
NIH3T3 = experiment: Cytotoxicity against mouse NIH/3T3 cells; assay type: cell-based
COLO 205 [4] = experiment: Cytotoxicity against human COLO205 cells relative to chromomycin A3; assay type: functional; conditions: pooled result: one value given for 4 cell lines, strains, targets or settings
A2780 [5] = experiment: Ratio of IC50 for chromomycin to compound for human A2780 cells; assay type: functional

Row | Structure (SMILES) | pIC50 (A549) | Ratio IC50 (COLO 205 [1]) | pIC50 (BXPC-3) | pIC50 (COLO 205 [2]) | pIC50 (A2780 [3]) | pIC50 (NIH3T3) | Ratio IC50 (COLO 205 [4]) | Ratio IC50 (A2780 [5])
1 | C=COC(=O)CCCCC(=O)O[C@H](C)[C@H](O)C(=O)[C@@H](OC)[C@@H]1Cc2cc3cc(O[C@H]4C[C@@H](O[C@@H]5C[C@@H](O)[C@H](OC)[C@@H](C)O5)[C@H](OC(C)=O)[C@@H](C)O4)c(C)c(O)c3c(O)c2C(=O)[C@H]1O[C@H]1C[C@H](O[C@H]2C[C@H](O[C@H]3C[C@@](C)(O)[C@@H](OC(C)=O)[C@H](C)O3)[C@H](O)[C@@H](C)O2)[C@H](O)[C@@H](C)O1 | 7.52 | 8 | 7.22 | 7.92 | 8.30 | 5.92 | 3.2 | 5
2 | CO[C@H]1[C@H](O)C[C@@H](O[C@@H]2C[C@H](Oc3cc4cc5c(c(O)c4c(O)c3C)C(=O)[C@@H](O[C@H]3C[C@H](O[C@H]4C[C@H](O[C@H]6C[C@@](C)(O)[C@@H](OC(C)=O)[C@H](C)O6)[C@H](O)[C@@H](C)O4)[C@H](O)[C@@H](C)O3)[C@H]([C@H](OC)C(=O)[C@@H](O)[C@@H](C)OC(C)=O)C5)O[C@H](C)[C@H]2OC(C)=O)O[C@@H]1C | 6.70 | – | 6.35 | 7.19 | 6.60 | 6.10 | 0.34 | –
3 | CCC(=O)O[C@H](C)[C@H](O)C(=O)[C@@H](OC)[C@@H]1Cc2cc3cc(O[C@H]4C[C@@H](O[C@@H]5C[C@@H](O)[C@H](OC)[C@@H](C)O5)[C@H](OC(C)=O)[C@@H](C)O4)c(C)c(O)c3c(O)c2C(=O)[C@H]1O[C@H]1C[C@H](O[C@H]2C[C@H](O[C@H]3C[C@@](C)(O)[C@@H](OC(C)=O)[C@H](C)O3)[C@H](O)[C@@H](C)O2)[C@H](O)[C@@H](C)O1 | 6.30 | – | 6.52 | 6.90 | 6.60 | 6.00 | 0.28 | –
4 | CCCC(=O)O[C@H](C)[C@H](O)C(=O)[C@@H](OC)[C@@H]1Cc2cc3cc(O[C@H]4C[C@@H](O[C@@H]5C[C@@H](O)[C@H](OC)[C@@H](C)O5)[C@H](OC(C)=O)[C@@H](C)O4)c(C)c(O)c3c(O)c2C(=O)[C@H]1O[C@H]1C[C@H](O[C@H]2C[C@H](O[C@H]3C[C@@](C)(O)[C@@H](OC(C)=O)[C@H](C)O3)[C@H](O)[C@@H](C)O2)[C@H](O)[C@@H](C)O1 | 6.73 | – | 6.35 | 7.46 | 7.19 | 6.12 | 0.45 | –
5 | CCCCCCCCCC(=O)O[C@H](C)[C@H](O)C(=O)[C@@H](OC)[C@@H]1Cc2cc3cc(O[C@H]4C[C@@H](O[C@@H]5C[C@@H](O)[C@H](OC)[C@@H](C)O5)[C@H](OC(C)=O)[C@@H](C)O4)c(C)c(O)c3c(O)c2C(=O)[C@H]1O[C@H]1C[C@H](O[C@H]2C[C@H](O[C@H]3C[C@@](C)(O)[C@@H](OC(C)=O)[C@H](C)O3)[C@H](O)[C@@H](C)O2)[C@H](O)[C@@H](C)O1 | 6.30 | – | 6.10 | 6.60 | 6.43 | 6.00 | 0.17 | –
6 | CO[C@@H]1[C@H](O)C[C@@H](O[C@@H]2C[C@H](Oc3cc4cc5c(c(O)c4c(O)c3C)C(=O)[C@@H](O[C@H]3C[C@@H](O[C@H]4C[C@@H](O[C@H]6C[C@](C)(O)[C@@H](OC(C)=O)[C@H](C)O6)[C@H](O)[C@@H](C)O4)[C@H](O)[C@@H](C)O3)[C@H]([C@H](OC)C(=O)[C@@H](O)[C@@H](C)O)C5)O[C@H](C)[C@@H]2OC(C)=O)O[C@@H]1C [CHROMOMYCIN A3] | 7.00 | – | 6.89 | 7.20 | 7.40 | 6.00 | – | –
